Data set [1] can be described thus: Long-term storage stability in plasma at −80 °C. The format is in vitro ADME, rat. The note with it: after 15, 30, 60 and 90 d. The protocol: (§1) The mean recovery was determined at low, medium and high concentrations from five replicates. The long-term storage stability at −80 °C was determined after 15, 30, 60 and 90 d. Bench-top stability testing was also conducted. Samples were spiked in blank plasma and extracted, then analyzed in three replications at 25 °C for 0, 1, 2, 4, 6 and 8 h. The freeze–thaw cycles were stabilized. Rhodomyrtone was spiked in blank plasma, then stored in a freezer (−20 °C) and thawed every 24 h at room temperature (25 °C) for three cycles prior to extraction.

Data set [2] has as its system Streptococcus mutans. The arrangement: method as in PMID 19303274. The note with it: cited from earlier work.
The subject of data set [3] is Staphylococcus epidermidis ATCC 35984 (biofilm positive). Also noted: method as in PMID 34067029. The conditions noted are these: cited from earlier work.
In data set [4] the test system is staphylococcal isolates. The conditions noted are these: most staphylococcal isolates; no reference given; cited from earlier work.
Data set [5] can be described thus: Freeze–thaw stability in plasma. The format is in vitro ADME, rat. The conditions noted are these: n = 5. The protocol:
as §1

The subject of data set [6] is Bacillus cereus. Also noted: method as in PMID 34067029. The note with it: cited from earlier work.

Converted amounts (≈) assume the structure as drawn.

Regarding `CC(C)CC(=O)c1c(O)cc2c(c1O)[C@@H](CC(C)C)C1=C(O2)C(C)(C)C(=O)C(C)(C)C1=O` [rhodomyrtone, Rhodomyrtone], the “Long-term stability, accuracy” value in data set [1] is recorded as 94–114%. In addition, the MIC in data set [2] was 0.19 µg/mL (≈ 0.429 µM); in data set [3], 0.39 µg/mL (≈ 0.881 µM); in data set [4], 0.5 to 1 µg/mL; in data set [6] it was 0.39 µg/mL (≈ 0.881 µM). The “Freeze–thaw stability, Accuracy (%)” value in data set [5] (Day 0, 0.1 µg/mL) came to 110.31%; in data set [5] (Day 0, 100 µg/mL), 103.71%; in data set [5] (Day 3 (three cycles −20 °C / 25 °C), 0.1 µg/mL), 105.93%; in data set [5] (Day 3 (three cycles −20 °C / 25 °C), 100 µg/mL), 108.10%.

The values above are taken from PMC10885983 (Antibiotics, 2024).
